In patent US20250262209A1, “TREATMENT OF GASTROINTESTINAL DISEASES” (Aclipse Two, Inc., priority 2022, published 2025):

Legend:
[1] = test system: monocytes from PBMC, M1-to-M2 macrophage repolarization; test: M1-to-M2 macrophage repolarization assay; format: cell-based, human
Text: The purpose of this study was to evaluate the effects of lobeglitazone and other thiazolidinediones on M1-to-M2 macrophage repolarization. The test articles and vehicles used in this study were lobeglitazone sulfate, pioglitazone HCl, and rosiglitazone.
M1-to-M2 macrophage repolarization assay timeline were as follows in Table 13.
Drug concentrations tested in the M1 differentiation assay are as in Table 14.
• (1) Isolate monocytes from PBMC using StemCell® monocyte isolation kit. • (2) Count cell and adjust the cell density to 0.5×10^6 cells/ml with fresh complete differentiation medium (add 10 μl M-CSF stock (100 μg/ml) 10 ml cell mixture to a final concentration of 50 ng/ml). • (3) Seed isolated monocyte 100 μL per well on 96-well plate. • (4) On day 4, add additional 100 μl medium containing M-CSF • (5) On day 6, add stimulator at 5× final concentration (200 μL medium in each well) to a final concentration of 50 ng/ml. • (6) On day 8, remove medium and replenish with 200 μL cytokine free medium, then add test compound (final concentration in μM) and incubate for 4 days. • (7) On day 12, add IL-4 and incubate for 2 days (add 50 μL of 100 ng/ml IL-4 to each well containing 200 μL medium to reach 20 ng/ml). • (8) On day 14, spin down the plates at 300×g for 5 min and collect the supernatant for cytokine quantification. • (9) M1 and M2 associated macrophage cytokines of interest are as follows in Table 15.
The cells are then collected for flow analysis of viability/CD11c/CD163/CD206.
Cell surface marker CD163, CD11c, and CD206 were applied to characterize M2 repolarization via flow cytometry. Controls included No stain and staining with all surface marker antibodies to confirm the optimization of gating strategy.

[2] = test system: colon of DSS-induced IBD model mice; test: Colon histology (H&E score, PAS goblet cells) in the DSS-induced IBD model; format: in vivo; conditions: vs model
Procedure: H&E staining: Colon sections were cut at 4 μm in thickness, dried in an oven for 1 hour and stained with H&E solution with our standard protocol. Briefly, the sections were stained with hematoxylin solution for 90 seconds. Then stain in eosin solution for 30 seconds. Then dehydrated and coverslipped for the subsequent image analysis. H&E stained images was scanned using LEICA Aperio® GT450. The severity of inflammatory cell infiltration and tissue damage were semi-quantitatively evaluated according to pathology score criteria in Table 7.
PAS staining: Colon sections were cut at 4 μm in thickness, dried in an oven for 1 hour and stained with PAS kit (Gefan #M035) with our standard protocol. Briefly, the sections were stained with periodic acid working solution for 8 minutes. Then wash with distilled water for 5 minutes, three times. Stain in Schiff solution for 10 minutes. Transform to distilled water for 5 minutes, three times. Then dehydrated and coverslipped for the subsequent image analysis.
The total length of the colon was measured by a ruler and then was divided into 3 segments, 100 microns in the middle of each segment was taken out for goblet cell calculation. In each 100 microns of colon tissue, the number of goblet cells was calculated, then the average number of goblet cells from three parts was used for next analysis.
In vivo animal data were presented as mean±SEM. Statistical analysis was performed by one-way ANOVA followed by Dunnett's multiple comparison. […] The difference was considered significance when p<0.05.

[3] = test system: monocytes differentiated to M1 macrophage; test: M1 macrophage differentiation assay; format: cell-based, human; conditions: TNF-α, IL-1b, IL-6, IL-12, IL-23 in supernatant on day 7 (MSD); concentrations of Table 9
Text: The purpose of this study was to evaluate the effects of lobeglitazone and other thiazolidinediones on M1 macrophage differentiation. The test articles and vehicles used in this study were lobeglitazone sulfate, pioglitazone HCl, and rosiglitazone.
M1 macrophage differentiation assay timeline was as follows in Table 8.
Drug concentrations tested in the M1 differentiation assay are as in Table 9.
• (1) Revive frozen monocytes. • (2) Count cells and adjust the cell density to 0.5×10^6 cells/ml with fresh complete differentiation medium (RPMI1640+10% FBS+1% PS plus GM-CSF or M-CSF at 50 ng/ml). • (3) Seed isolated monocyte 100 μL per well on 96-well plate. • (4) Add test articles as the plate map using D300e (final concentration in μM). • (5) Differentiate the monocyte to macrophage in the presence of GM-CSF to M1, or M-CSF to M2 for 5 days. • (6) On day 5, add cytokines at 2× final concentration. • (6a) Prepare medium containing GM-CSF for M1 and M-CSF for M2. • (6b) Add corresponding activator to reach 2× final working concentration: (i) IFNγ stock 0.2 mg/ml: add 2.5 μL stock into 5 ml complete differentiation medium for 100 ng/ml; (ii) LPS stock 1.0 mg/ml: dilute to 20 μg/ml by mixing 2 μL stock into 100 μl medium; then add 10 μl 20 μg/ml LPS to 5 ml complete differentiation medium for 40 ng/ml; (iii) IL-4 stock 0.1 mg/ml: dilute 2 μL stock into 5 ml complete differentiation medium for 40 ng/ml. • (6c) Add 100 μL cytokine containing differentiating medium to each well, and total volume of each well is 200 μL. • (6d) Add test compound again using D300e. Make sure to set the final volume as 200 μL. • (7) Incubate cytokine and test compound for 48 hours. • (8) On day 7, spin down the plates at 300×g for 5 min and collect the supernatant for cytokine quantification using MSD. • (9) M1 associated macrophage cytokines TNF-α, IL-1b, IL-6, IL-12, and IL-23 were quantified.

SMILES: COc1ccc(Oc2cc(N(C)CCOc3ccc(CC4SC(=O)NC4=O)cc3)ncn2)cc1 (stereo not drawn) [lobeglitazone, 5-(4-(2-((6-(4-Methoxyphenoxy)pyrimidin-4-yl)(methyl)amino)ethoxy)benzyl)thiazolidine-2,4-dione]
- concentration at which M1-to-M2 repolarization was promoted (M2 macrophage surface markers, flow cytometry) ([1]; CD163, CD11c, CD206, lowest concentration with effect): ~0.05 µM
- concentration showing remarkable promotion of MDC expression ([1]; cytokine analysis (MSD), day 14 supernatant): 0.1 µM
- H&E total score (inflammation/tissue damage) ([2]; 0.36 mg/kg PO QD 10 days): led to decrease
- number of goblet cells (PAS staining) ([2]; 0.36 mg/kg PO QD 10 days): trended to increase
- H&E total score (inflammation/tissue damage) ([2]; 1.20 mg/kg PO QD 10 days): led to decrease
- number of goblet cells (PAS staining) ([2]; 1.20 mg/kg PO QD 10 days): trended to increase
- H&E total score (inflammation/tissue damage) ([2]; 3.61 mg/kg PO QD 10 days): led to decrease
- number of goblet cells (PAS staining) ([2]; 3.61 mg/kg PO QD 10 days): did not change
- M1 macrophage cytokines expression [3]: did not show the promotion
